The values below come from patent US5965582A, “N-benzylindole and benzopyrazole derivatives with anti-asthmatic, anti-allergic, anti-inflammatory and immunemodulating effect” (ASTA Medica Aktiengesellschaft, priority 1994, dated 1999).

Counter-ions that a name gives are not always drawn.

The test system of assay [1] is IL-5 release from murine T-helper cells (D10.G4). Kind of assay: Inhibition of anti-CD3-induced IL-5-release in vitro (CIL5TC). The assay is classed as cell-based. As to conditions: 16 hours. As for the experimental part:
(§1) Inhibition of anti-CD3-induced release of interleucin (IL)-4 (CIL4TC) and IL-5-release (CIL5TC) in vitro
(§2) Murine T-helper cells (D10.G4) were used as IL-4/IL-5-producing cells. These cells were pre-incubated with the test substances for 30 minutes at 37° C. The cells were then stimulated at 37° C. to produce interleucins by adding a monoclonal antibody against the T-cell receptor domain CD3 (anti-CD3). After 16 hours, the cells were centrifuged off and the released interleucins were quantified in the cell supernatant with ELISAs for murine IL-4 and IL-5.

Assay [2] relates to IL-4 release from murine T-helper cells (D10.G4). As to the kind of experiment: Inhibition of anti-CD3-induced release of interleucin (IL)-4 in vitro (CIL4TC). The assay is classed as cell-based. The note with it: anti-CD3-induced IL-4 release; for CIL4TC % inhibition: with 10 000 nmol/l; for IC50: 16 hours. On the procedure:
as §1, §2

In assay [3] the test system is eosinophilia in the lavage. As to the kind of experiment: Late phase eosinophilia model in sensitised guinea pigs (bronchoalveolar lavage). The assay is classed as in vivo, guinea pigs (Pirbright White). As for the experimental part:
The in vitro investigations with D-22557 and D-22558 were continued in vivo (late phase eosinophilia model) in sensitised guinea pigs
Male guinea pigs (Pirbright White, 200-250 g. Charles River Wiga, Sulfeld) were actively sensitised using a s.c. injection cf ovalbumin (10μg+100 mg aluminium hydroxide) and boosted 2 weeks later. One week after the booster injection the animals were exposed for 30 seconds to an aerosol made from 0.5% ovalbumin solution. 24 hours later brochoalveolar lavage (BAL) was carried out with 2×5 ml physiol. salt solution in animals sacrificed using an overdose of pentobarbital sodium and desanguinated. The lavage fluid was pooled, centrifuged for 10 minutes at 400×g and the cell pellet resuspended in 1 ml physiological salt solution. The eosinophiles were counted in a Neubauer chamber after staining by using a Becton Dickinson eosinophile test kit. Percentage Inhibition of the eosinophilia in the lavage was calculated in percent by comparing the eosinophile count of the groups treated with substance with the eosinolphile count of normal (unchallenged) and challenged control groups not treated with the substance. Each group numbered 10 animals. Test substances were either given prophylactically 2 hours before allergen challenge (-2 h) or therapeutically 4 hours after challenge (+4 h). When the therapeutic application was investigated, the animals (all groups) received azelastin (10 μg/kg po) 2 hours before allergen challenge to avoid deaths arising due to the onset of early phase bronchoconstriction.

The subject of assay [4] is allergically-induced histamine release from mast cells of the peritoneal and pleura cavities. Kind of assay: Inhibition of allergically-induced histamine release in-vitro (CHIR). The assay is classed as cell-based, Sprague-Dawley rats. As to conditions: for IC50: allergically-induced histamine release, rat mast cells, in vitro; for CHIR % inhibition: with 10 [μmol/l] (footnote: concentration unit 10,000 nmol/l). On the procedure:
Inhibition of allergically-induced histamine release in-vitro (CHIR)
Meth. […] Sprague-Dawley rats were sensitised against egg albumin (EA) by subcutaneous injection of 30 mg EA with killed Bordetella pertussis bacteria as adjuvant. Four weeks later, the mast cells of the peritoneal and pleura cavities were isolated from these animals. The cells were washed, resuspended in tris gel CM (the composition of tris gel CM buffer is as follows:
the rest is water, the pH value of the solution is 7.6) buffer and pre-incubated with the test substances for 15 minutes at 37° C. The cells were then stimulated at 37° C. by adding the antigen EA to release histamine.

Where [5] appears, read: 5 mg/kg ip, -2 h (before allergen challenge).

`Fc1ccc(Cn2cc(CCCNc3ccncc3)c3ccccc32)cc1` [D-22698, N-(4-pyridyl-yl)-3-[1-(4-fluorobenzyl)indole-3-yl]propylamine] displayed an IC50 in assay [1] (Mus musculus) of 7.77 µM. The molecule also gave a CIL4TC % inhibition in assay [2] of 38%.

As to `Fc1ccc(Cn2cc(CCNc3cccnc3)c3ccccc32)cc1.O=C(O)/C=C\C(=O)O` [D-22557, N-(pyridine-3-yl)-2-[1-(4-fluorobenzyl)indole-3-yl]ethylamine maleate], the “% Inhibition of the eosinophilia in the lavage” value in assay [3] (0.5 mg/kg ip, -2 h (before allergen challenge)) is on record as 59%; in assay [3] (1 mg/kg ip, -2 h (before allergen challenge)), 42%; in assay [3] (setting [5]), 50%.

Regarding `CCOC(=O)Nc1ccc(N2CCc3c([nH]c4ccccc34)C2)nc1N` [D-22559, N-(6-amino-5-ethoxycarbonylamino-(-2-pyridyl))-1,2,3,4-tetrahydro-β-carboline], the concentration for half-maximal inhibition (IC50) in assay [1] (Mus musculus) is 6.6 µM; in assay [4] (Mast cell), 3.4 µM. In assay [2], the CIL4TC % inhibition came to 51%.

For `Cn1cc(CCCNc2ccncc2)c2ccccc21` [D-22697, N-(4-pyridyl-yl)-3-(1-methylindole-3-yl)propylamine], the figures for the half-inhibitory concentration (IC50) in assay [1] (Mus musculus) and in assay [2] (Mus musculus) were 2.88 µM and 7.29 µM, respectively.

As for `c1ccc(Cn2cc(CCNc3ccncc3)c3ccccc32)cc1` [D-22685, N-(4-pyridyl-yl)-2-(1-benzylindole-3-yl)ethylamine maleate], the IC50 in assay [1] (Mus musculus) is 6.89 µM; in assay [2] (Mus musculus) it was 8.58 µM. The CHIR % inhibition in assay [4] was 33%.

As to `CCn1cc(CC(=O)Nc2ccncc2)c2ccccc21` [D-22693, N-(4-pyridyl-yl)-2-(1-ethylindole-3-yl)acetamide], the IC50 in assay [1] (Mus musculus) came to 2.7 µM; in assay [4] (Mast cell), 0.4 µM. This molecule also came in with a CIL4TC % inhibition in assay [2] of 48%.

As for `CCOC(=O)Nc1ccc(OC)nc1NCCCc1cn(Cc2ccc(F)cc2)c2ccccc12` [D-22993], the IC50 in assay [1] stood at 6.94 µM; in assay [4], 0.54 µM; in assay [2], 8.97 µM.

Consider `Fc1ccc(Cn2cc(CCCNc3cccnc3)c3ccccc32)cc1` [D-22686, N-(3-pyridyl-yl)-3-3[1-(4-fluorobenzyl)indole-3-yl]propylamine], for which the IC50 in assay [1] (Mus musculus) was 7.31 µM; in assay [4] (Mast cell) it was 0.2 µM. Also, the CIL4TC % inhibition in assay [2] came out at 41%.

Take `CCOC(=O)Nc1ccc(OC)nc1NCCc1cn(Cc2ccccc2)c2ccccc12` [D-22992, N-(3-ethoxycarbonylamino-6-methoxy-(2-pyridyl))-2-(1-benzylindole-3-yl)ethylamine]: the half-inhibitory concentration (IC50) turned out to be 6.24 µM in assay [1] (Mus musculus), 0.68 µM in assay [4] (Mast cell) and 9.73 µM in assay [2] (Mus musculus).

`Fc1ccc(Cn2cc(CCNc3ccncc3)c3ccccc32)cc1` [D-22561, N-(4-pyridyl-yl)-2-[1-(4-fluorobenzyl)indole-3-yl]ethylamine maleate]: the IC50 in assay [1] (Mus musculus) was found to be 3.21 µM; in assay [2] (Mus musculus), 5.68 µM. In addition, in assay [4], the CHIR % inhibition is 15%.

As for `O=C(Cc1cn(Cc2ccc(F)cc2)c2ccccc12)Nc1ccncc1` [D-22558, N-(4-pyridyl)-[1-(4-fluorobenzyl)indole-3-yl]acetamide], the values for the half-inhibitory concentration (IC50) in assay [1] (Mus musculus), in assay [4] (Mast cell) and in assay [2] (Mus musculus) were 1.52 µM, 0.016 µM and 7.97 µM, respectively. Moreover, the “% Inhibition of the eosinophilia in the lavage” value in assay [3] (setting [5]) is listed as 41%; in assay [3] (10 mg/kg ip, +4 h (after challenge), animals received azelastin 10 μg/kg po 2 hours before challenge), 59%; in assay [3] (10 mg/kg po, -2 h (before allergen challenge)), 23%; in assay [3] (30 mg/kg po, -2 h (before allergen challenge)), 35%.

For orientation: IC50 means the concentration that gives 50% inhibition. A lower IC50 goes with greater potency in that assay.
